Here are results for 2 compounds from US12601743B2, “Methods for treating drug resistant cancers” (The Regents of the University of California, priority 2017, dated 2026).

Entries after “also recorded” stand apart in the source; their conditions may differ.

Assay [1] relates to YAP/TAZ expression in GBM cells. The assay is described as follows: YAP/TAZ expression after PAK4 inhibition (immunoblot). The assay is classed as cell-based, human. Conditions: FIG. 3H, FIG. 14C; U87MG, LN229. On the procedure:
Chemicals. Verteporfin (YAP inhibitor) was purchased from Sigma and used at the concentration of 0.5-10 μM for 24 hours. PF-03758309 (PAK4 inhibitor) was purchased from Chemietek and used at the concentration of 50 nM-1000 nM for 24 hours.
Immunoblotting. Proteins were extracted in RIPA buffer and quantified using the Pierce BCA kit (Thermo Fisher). 10-30 μg of protein was boiled in NuPage buffer (Thermo Fisher) and loaded onto a denaturing SDS-polyacrylamide gel (10%), transferred to PVDF membranes and blotted with anti-mouse or -rabbit HRP-conjugated secondary antibodies (Bio-Rad). The following antibodies were used for immunoblotting: β3 (Cell Signaling), Glut3 (Santa Cruz Biotechnology), YAP (Santa Cruz) YAP-XP (cell signaling), TAZ (Cell Signaling), PAK4 and pPAK4 (Cell Signaling), and Vinculin and β-actin (Sigma-Aldrich) as loading controls.
(In general: Immunoblotting shows a protein as a band on a membrane.)

The test system of a further assay is GBM26 and GBM12 GSCs. Put plainly: GSC cell viability (CELLTITER-GLO), Mayo Clinic β3/Glut3-low models. The assay is classed as cell-based, human. Conditions: FIG. 17A-B. On the procedure:
(§1) Cell viability assay. U87MG, LN229, and LN18 cells were seeded at 1K cells per well in black 96-well plates in DMEM medium (no glucose) with 10% dialyzed FBS±glucose (0-4.5 g/L). Cell viability was determined by Alamar Blue dye (Life Technologies) according to manufacturer's instructions. For GSCs, cells were seeded at 10K cells per well in white 96-well low attachment plates in GSC medium±glucose (0-4.5 g/L). Viable cell numbers were evaluated using a CELLTITER-GLO™ assay kit (Promega). Each condition consisted of, at least, three replicate wells and data were expressed as relative luciferase units or as the percentage of survival of control cells.
A general note: In ATP-based viability assays light output follows the ATP content of the culture.

Another assay has as its system GBM150 and GBM59 GSCs. The assay is described as follows: GSC cell viability (CELLTITER-GLO), Mayo Clinic models with Glut3 non-addicted signature. It counts as cell-based, human. Conditions: mesenchymal, FIG. 17B. On the procedure: as §1
A further assay concerns Ge479 orthotopic tumors. Put plainly: Orthotopic brain tumor xenograft survival, Ge479. The settings on record: Ge479 (Glut3 addicted); systemic treatment; FIG. 21. It counts as in vivo, mice. On the procedure:
Orthotopic brain tumor xenografts. Intracranial transplantation of U87MG or GSC (Ge518 and Ge479) into 6-8-week-old nu/nu nude immunocompromised mice (Charles River Labs) was performed in accordance with the UCSD Institutional Animal Care and Use Committee. U87MG cells bearing β3, Glut3 shRNA or shβ3 ectopically expressing Glut3 as well as shRNA control (15 mice per group) were orthotopically transplanted following washing and resuspension in PBS. Ge479 and Ge518 were orthotopically transplanted following washing and resuspension in DMEM/F12. Mice were treated with vehicle (PBS) or cilengitide (10 mg kg 1 or 30 mg kg 1; 8 mice per group) five days per week. Briefly, with a stereotaxic frame (Stoelting Co.), a small burr hole was made in the skull 2 mm anterior and 2 mm lateral to the bregma. A 31-gauge Hamilton needle/syringe was inserted 3 mm, and 0.25 μl/minute was dispensed (10^5 tumor cells in 2 μl media). A total of 1×10^5 and 3×10^5 cells in 2 μl was injected respectively for U87MG cells and GSCs respectively.

The subject of assay [2] is Ge738, GBM6, Ge970.2 and Ge885 GSCs. Put plainly: GSC cell viability (CELLTITER-GLO), GSC with low β3/Glut3 expression. It counts as cell-based, human. The settings on record: GSC with low β3/Glut3 expression (Ge738, GBM6, Ge970.2, Ge885); FIG. 5D, 5H. On the procedure: as §1
The next assay relates to glioblastoma. The settings on record: GBM patients; phase III CENTRIC, phase II CORE (Stupp et al., 2014); cited from earlier work.
The test system of assay [3] is GBM14, GBM64 and GBM85 GSCs. The assay is described as follows: GSC cell viability (CELLTITER-GLO), Mayo Clinic models predicted Glut3 addicted. It counts as cell-based, human. Conditions: Classical or Proneural, Glut3 addicted signature, FIG. 17B. On the procedure: as §1

Take `Cc1nc(Nc2n[nH]c3c2CN(C(=O)N[C@H](CN(C)C)c2ccccc2)C3(C)C)c2sccc2n1` [PF-03758309]: the YAP/TAZ expression entry in assay [1] is “decrease of YAP/TAZ expression”.
On to `CC(C)[C@H]1C(=O)N[C@@H](CCCN=C(N)N)C(=O)NCC(=O)N[C@@H](CC(=O)O)C(=O)N[C@H](Cc2ccccc2)C(=O)N1C` [cilengitide, 2-[(2S,5R,8S,11S)-5-benzyl-11-{3-[(diaminomethylidene)amino]propyl}-7-methyl-3,6,9,12,15-pentaoxo-8-(propan-2-yl)-1,4,7,10,13-pentaazacyclopentadecan-2-yl]acetic acid], for which the “effect on cell viability” value in the assay on GBM26 and GBM12 GSCs is recorded as “no effect or a moderate enhancement of viability”; in assay [2], “moderate enhancement of viability”. The “sensitivity (cell viability)” value in the assay on GBM150 and GBM59 GSCs is on record as “largely resistant; also recorded: not affected”; in assay [3], “largely sensitive; also recorded: sensitivity to integrin blockade”. Also, the “survival of mice bearing orthotopic tumors” value with Ge479 orthotopic tumors was “dramatically prolongs the survival”. Further, in the assay with glioblastoma, the “overall survival in clinical trials” value was “failed to meet overall survival endpoints; also recorded: failed to produce a significant overall survival benefit”.
